Laboratory results from publication PMC8699473, “An Easily Expandable Multi-Drug LC-MS Assay for the Simultaneous Quantification of 57 Oral Antitumor Drugs in Human Plasma” (Cancers, 2021).

Key:
[1] = Freeze-thaw stability in spiked pooled human plasma; type: physicochemical
[2] = Long-term stability in spiked pooled human plasma
[3] = parameters: method as in supplement references [1-55] as printed per drug; conditions: minimum steady-state blood plasma concentration after multiple dose administration; ref supplement references [1-55] per drug; cited from earlier work
[4] = Autosampler stability of ready for injection samples; type: physicochemical, human
[5] = Short-term stability in spiked pooled human plasma (bench-top, 4 °C, 56 °C)

COc1cc(N2CCC(N3CCN(C)CC3)CC2)ccc1Nc1ncc(Cl)c(Nc2ccccc2P(C)(C)=O)n1 [Brigatinib]
Freeze-Thaw Accuracy [%] ([1]; validation standard 2xLLOV): 98.7% | Freeze-Thaw Accuracy [%] ([1]; validation standard LLOV): 111.4% | Freeze-Thaw Accuracy [%] ([1]; validation standard MOV): 95.5% | Freeze-Thaw Accuracy [%] ([1]; validation standard ULOV): 97.9% | Long-term stability, 1 month, -20°C Accuracy [%] ([2]; validation standard 2xLLOV): 92.4% | Long-term stability, 1 month, -80°C Accuracy [%] ([2]; validation standard 2xLLOV): 92.1% | Long-term stability, 2 month, -20°C Accuracy [%] ([2]; validation standard 2xLLOV): 105.4% | Long-term stability, 2 month, -80°C Accuracy [%] ([2]; validation standard 2xLLOV): 110.2% | Long-term stability, 3 month, -20°C Accuracy [%] ([2]; validation standard 2xLLOV): 96.3% | Long-term stability, 3 month, -80°C Accuracy [%] ([2]; validation standard 2xLLOV): 99.0% | Long-term stability, 6 weeks, 4°C, without daylight Accuracy [%] ([2]; validation standard 2xLLOV): 94.2% | Long-term stability, 1 month, -20°C Accuracy [%] ([2]; validation standard LLOV): 93.6% | Long-term stability, 1 month, -80°C Accuracy [%] ([2]; validation standard LLOV): 88.3% | Long-term stability, 2 month, -20°C Accuracy [%] ([2]; validation standard LLOV): 100.6% | Long-term stability, 2 month, -80°C Accuracy [%] ([2]; validation standard LLOV): 96.7% | Long-term stability, 3 month, -20°C Accuracy [%] ([2]; validation standard LLOV): 92.1% | Long-term stability, 3 month, -80°C Accuracy [%] ([2]; validation standard LLOV): 93.0% | Long-term stability, 6 weeks, 4°C, without daylight Accuracy [%] ([2]; validation standard LLOV): 89.6% | Long-term stability, 1 month, -20°C Accuracy [%] ([2]; validation standard MOV): 100.8% | Long-term stability, 1 month, -80°C Accuracy [%] ([2]; validation standard MOV): 96.9% | Long-term stability, 2 month, -20°C Accuracy [%] ([2]; validation standard MOV): 108.5% | Long-term stability, 2 month, -80°C Accuracy [%] ([2]; validation standard MOV): 107.5% | Long-term stability, 3 month, -20°C Accuracy [%] ([2]; validation standard MOV): 105.5% | Long-term stability, 3 month, -80°C Accuracy [%] ([2]; validation standard MOV): 106.8% | Long-term stability, 6 weeks, 4°C, without daylight Accuracy [%] ([2]; validation standard MOV): 104.7% | Long-term stability, 1 month, -20°C Accuracy [%] ([2]; validation standard ULOV): 100.4% | Long-term stability, 1 month, -80°C Accuracy [%] ([2]; validation standard ULOV): 95.0% | Long-term stability, 2 month, -20°C Accuracy [%] ([2]; validation standard ULOV): 105.8% | Long-term stability, 2 month, -80°C Accuracy [%] ([2]; validation standard ULOV): 108.0% | Long-term stability, 3 month, -20°C Accuracy [%] ([2]; validation standard ULOV): 102.6% | Long-term stability, 3 month, -80°C Accuracy [%] ([2]; validation standard ULOV): 98.7% | Long-term stability, 6 weeks, 4°C, without daylight Accuracy [%] ([2]; validation standard ULOV): 98.6% | cmin [3]: 520 ng/mL | Autosampler (24h, 4°C) Accuracy [%] ([4]; validation standard 2xLLOV): 96.4% | Autosampler (72h, 4°C) Accuracy [%] ([4]; validation standard 2xLLOV): 91.9% | Autosampler (24h, 4°C) Accuracy [%] ([4]; validation standard LLOV): 90.7% | Autosampler (72h, 4°C) Accuracy [%] ([4]; validation standard LLOV): 85.3% | Autosampler (24h, 4°C) Accuracy [%] ([4]; validation standard MOV): 104.4% | Autosampler (72h, 4°C) Accuracy [%] ([4]; validation standard MOV): 95.5% | Autosampler (24h, 4°C) Accuracy [%] ([4]; validation standard ULOV): 96.1% | Autosampler (72h, 4°C) Accuracy [%] ([4]; validation standard ULOV): 96.6% | Short-time stability (1h, 56°C) Accuracy [%] ([5]; validation standard 2xLLOV): 18.2% | Short-time stability (24h, 4°C, without daylight) Accuracy [%] ([5]; validation standard 2xLLOV): 102.8% | Short-time stability (24h, RT, with daylight) Accuracy [%] ([5]; validation standard 2xLLOV): 76.4% | Short-time stability (24h, RT, without daylight) Accuracy [%] ([5]; validation standard 2xLLOV): 74.1% | Short-time stability (1h, 56°C) Accuracy [%] ([5]; validation standard LLOV): 7.8% | Short-time stability (24h, 4°C, without daylight) Accuracy [%] ([5]; validation standard LLOV): 95.0% | Short-time stability (24h, RT, with daylight) Accuracy [%] ([5]; validation standard LLOV): 55.6% | Short-time stability (24h, RT, without daylight) Accuracy [%] ([5]; validation standard LLOV): 55.1% | Short-time stability (1h, 56°C) Accuracy [%] ([5]; validation standard MOV): 38.5% | Short-time stability (24h, 4°C, without daylight) Accuracy [%] ([5]; validation standard MOV): 104.2% | Short-time stability (24h, RT, with daylight) Accuracy [%] ([5]; validation standard MOV): 85.3% | Short-time stability (24h, RT, without daylight) Accuracy [%] ([5]; validation standard MOV): 93.4% | Short-time stability (1h, 56°C) Accuracy [%] ([5]; validation standard ULOV): 35.7% | Short-time stability (24h, 4°C, without daylight) Accuracy [%] ([5]; validation standard ULOV): 93.7% | Short-time stability (24h, RT, with daylight) Accuracy [%] ([5]; validation standard ULOV): 91.3% | Short-time stability (24h, RT, without daylight) Accuracy [%] ([5]; validation standard ULOV): 90.3%

Nc1cccc2c1CN(C1CCC(=O)NC1=O)C2=O (stereo not drawn) [Lenalidomide]
Freeze-Thaw Accuracy [%] ([1]; validation standard 2xLLOV): 104.4% | Freeze-Thaw Accuracy [%] ([1]; validation standard LLOV): 91.0% | Freeze-Thaw Accuracy [%] ([1]; validation standard MOV): 97.3% | Freeze-Thaw Accuracy [%] ([1]; validation standard ULOV): 96.8% | Long-term stability, 1 month, -20°C Accuracy [%] ([2]; validation standard 2xLLOV): 112.2% | Long-term stability, 1 month, -80°C Accuracy [%] ([2]; validation standard 2xLLOV): 103.2% | Long-term stability, 2 month, -20°C Accuracy [%] ([2]; validation standard 2xLLOV): 97.9% | Long-term stability, 2 month, -80°C Accuracy [%] ([2]; validation standard 2xLLOV): 104.0% | Long-term stability, 3 month, -20°C Accuracy [%] ([2]; validation standard 2xLLOV): 99.5% | Long-term stability, 3 month, -80°C Accuracy [%] ([2]; validation standard 2xLLOV): 104.1% | Long-term stability, 6 weeks, 4°C, without daylight Accuracy [%] ([2]; validation standard 2xLLOV): 15.8% | Long-term stability, 1 month, -20°C Accuracy [%] ([2]; validation standard LLOV): 104.5% | Long-term stability, 1 month, -80°C Accuracy [%] ([2]; validation standard LLOV): 96.6% | Long-term stability, 2 month, -20°C Accuracy [%] ([2]; validation standard LLOV): 52.8% | Long-term stability, 2 month, -80°C Accuracy [%] ([2]; validation standard LLOV): 56.2% | Long-term stability, 3 month, -20°C Accuracy [%] ([2]; validation standard LLOV): 69.1% | Long-term stability, 3 month, -80°C Accuracy [%] ([2]; validation standard LLOV): 82.4% | Long-term stability, 1 month, -20°C Accuracy [%] ([2]; validation standard MOV): 93.9% | Long-term stability, 1 month, -80°C Accuracy [%] ([2]; validation standard MOV): 93.9% | Long-term stability, 2 month, -20°C Accuracy [%] ([2]; validation standard MOV): 101.8% | Long-term stability, 2 month, -80°C Accuracy [%] ([2]; validation standard MOV): 104.0% | Long-term stability, 3 month, -20°C Accuracy [%] ([2]; validation standard MOV): 92.9% | Long-term stability, 3 month, -80°C Accuracy [%] ([2]; validation standard MOV): 96.0% | Long-term stability, 6 weeks, 4°C, without daylight Accuracy [%] ([2]; validation standard MOV): 19.7% | Long-term stability, 1 month, -20°C Accuracy [%] ([2]; validation standard ULOV): 92.6% | Long-term stability, 1 month, -80°C Accuracy [%] ([2]; validation standard ULOV): 88.5% | Long-term stability, 2 month, -20°C Accuracy [%] ([2]; validation standard ULOV): 95.8% | Long-term stability, 2 month, -80°C Accuracy [%] ([2]; validation standard ULOV): 98.8% | Long-term stability, 3 month, -20°C Accuracy [%] ([2]; validation standard ULOV): 89.8% | Long-term stability, 3 month, -80°C Accuracy [%] ([2]; validation standard ULOV): 94.4% | Long-term stability, 6 weeks, 4°C, without daylight Accuracy [%] ([2]; validation standard ULOV): 16.2% | cmin [3]: 13 ng/mL | Autosampler (24h, 4°C) Accuracy [%] ([4]; validation standard 2xLLOV): 117.5% | Autosampler (72h, 4°C) Accuracy [%] ([4]; validation standard 2xLLOV): 109.8% | Autosampler (24h, 4°C) Accuracy [%] ([4]; validation standard LLOV): 80.7% | Autosampler (72h, 4°C) Accuracy [%] ([4]; validation standard LLOV): 95.6% | Autosampler (24h, 4°C) Accuracy [%] ([4]; validation standard MOV): 107.0% | Autosampler (72h, 4°C) Accuracy [%] ([4]; validation standard MOV): 100.0% | Autosampler (24h, 4°C) Accuracy [%] ([4]; validation standard ULOV): 100.8% | Autosampler (72h, 4°C) Accuracy [%] ([4]; validation standard ULOV): 98.9% | Short-time stability (1h, 56°C) Accuracy [%] ([5]; validation standard 2xLLOV): 39.6% | Short-time stability (24h, 4°C, without daylight) Accuracy [%] ([5]; validation standard 2xLLOV): 107.4% | Short-time stability (24h, RT, with daylight) Accuracy [%] ([5]; validation standard 2xLLOV): 54.9% | Short-time stability (24h, RT, without daylight) Accuracy [%] ([5]; validation standard 2xLLOV): 49.6% | Short-time stability (24h, 4°C, without daylight) Accuracy [%] ([5]; validation standard LLOV): 83.0% | Short-time stability (24h, RT, with daylight) Accuracy [%] ([5]; validation standard LLOV): 81.5% | Short-time stability (1h, 56°C) Accuracy [%] ([5]; validation standard MOV): 20.6% | Short-time stability (24h, 4°C, without daylight) Accuracy [%] ([5]; validation standard MOV): 97.8% | Short-time stability (24h, RT, with daylight) Accuracy [%] ([5]; validation standard MOV): 58.7% | Short-time stability (24h, RT, without daylight) Accuracy [%] ([5]; validation standard MOV): 54.1% | Short-time stability (1h, 56°C) Accuracy [%] ([5]; validation standard ULOV): 18.5% | Short-time stability (24h, 4°C, without daylight) Accuracy [%] ([5]; validation standard ULOV): 90.4% | Short-time stability (24h, RT, with daylight) Accuracy [%] ([5]; validation standard ULOV): 51.9% | Short-time stability (24h, RT, without daylight) Accuracy [%] ([5]; validation standard ULOV): 50.9%
